The source made the active and inactive calls.
What was measured:
[1] = ATP-based viability loss in HeLa cells – cell-based, CellTiter-Glo luminescence, dry powder, set 2, cytotoxicity control, dose response (AID 720593); format: functional
[2] = ATP-based viability loss in HEK293T cells – cell-based, CellTiter-Glo luminescence, dry powder, set 2, cytotoxicity control, dose response (AID 720595); format: functional; settings: HEK293
[3] = cytotoxicity toward HT-29 cells – cell-based, CellTiter-Glo luminescence, IC50, dose response (AID 1117330); format: functional
[4] = Reduced DLD-1 viability, concentration-response, CellTiter-Glo luminescence (AID 1117352); format: functional
[5] = cytotoxicity toward Colo320 cells – cell-based, CellTiter-Glo luminescence, IC50, dose response (AID 1117334); format: functional; settings: COLO 320
[6] = cytotoxicity toward HCT116 cells – cell-based, CellTiter-Glo luminescence, IC50, dose response (AID 1117332); format: functional; settings: HCT-116
[7] = CellTiter-Glo luminescence survival assay, SW480 colon tumor line, concentration-response curve, half-maximal inhibitory concentration (AID 1117338); format: functional
[8] = HCT116 cell viability decrease, GSK3B pretreatment – CellTiter-Glo, IC50, dose response (AID 1117339); format: functional; settings: HCT-116
[9] = SNU-C1 cell viability reduction, dose response, CellTiter-Glo luminescence (AID 1117323); format: functional, cell-based
[10] = RKO cell viability reduction, dose response, CellTiter-Glo luminescence (AID 1117322); format: functional
Transthyretin = Transthyretin (Homo sapiens, UniProt P02766); experiment: Luminescence-based cell-based high throughput dose response assay to identify activators of Transthyretin (TTR) transcription.; format: functional
[11] = T. cruzi growth inhibition in host cells, dose response, cell-based, plate reader, dry powder, set 2 (AID 652275); format: functional
[12] = Trypanosoma cruzi replication inhibitors in host cells – cell-based, plate reader, dry powder samples, dose response (AID 651845); format: functional
[13] = anti-trypanosomal activity in BESM host cells – imaging, CA-I/72 strain, bovine embryo skeletal muscle, dry powder, dose response (AID 651885); format: functional, cell-based
[14] = target: T1, Low molecular weight phosphotyrosine protein phosphatase (Homo sapiens, UniProt P24666); experiment: inhibition of human LMPTP enzyme activity – biochemical, absorbance, pNPP substrate, LMPTP-A isoform, set 2, orthogonal assay, dose response (AID 743308); format: functional
T1 sequence (P24666 whole entry): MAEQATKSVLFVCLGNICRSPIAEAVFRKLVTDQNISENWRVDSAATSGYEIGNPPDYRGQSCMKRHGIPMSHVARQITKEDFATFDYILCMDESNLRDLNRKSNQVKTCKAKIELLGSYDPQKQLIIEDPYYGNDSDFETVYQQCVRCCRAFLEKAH

[15] = target: T1, Low molecular weight phosphotyrosine protein phosphatase; experiment: inhibition of LMPTP-A enzymatic activity – biochemical, OMFP substrate, fluorescence intensity, set 2, dose response (AID 743307); format: functional
[16] = target: T2, Mannose-6-phosphate isomerase (Homo sapiens, UniProt P34949); experiment: MPI inhibition at elevated mannose 6-phosphate – biochemical, fluorescence intensity, high mannose 6-phosphate, primary screen (AID 1220)
T2 sequence (P34949 whole entry): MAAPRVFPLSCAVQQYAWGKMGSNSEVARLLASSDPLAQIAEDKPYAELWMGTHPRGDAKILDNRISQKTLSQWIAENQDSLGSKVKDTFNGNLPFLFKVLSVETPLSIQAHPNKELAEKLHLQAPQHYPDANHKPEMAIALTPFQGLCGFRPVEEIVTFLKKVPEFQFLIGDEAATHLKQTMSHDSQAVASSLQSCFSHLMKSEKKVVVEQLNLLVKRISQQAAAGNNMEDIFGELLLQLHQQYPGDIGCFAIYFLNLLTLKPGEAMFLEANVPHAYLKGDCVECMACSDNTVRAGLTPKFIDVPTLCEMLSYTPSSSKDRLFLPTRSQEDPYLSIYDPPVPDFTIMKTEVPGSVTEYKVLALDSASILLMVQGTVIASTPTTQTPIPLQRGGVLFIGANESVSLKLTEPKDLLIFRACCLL

Vero = experiment: viability of Vero cells under compound – cytotoxicity control for flavivirus capping enzyme inhibitors (AID 588742); format: functional; settings: Chlorocebus sabaeus

## O=C(Cc1ccccc1)NC(c1ccco1)c1ccc2cccnc2c1O (stereo not drawn)
[1]
  AC50: 18.1 µM (active)
[2]
  AC50: 2.56 µM (active)

## CC(C)(CO)[C@@H](O)C(=O)NCCC(=O)NCCSSCCNC(=O)CCNC(=O)[C@H](O)C(C)(C)CO
[3]
  IC50: > 20 µM (inactive)
[4]
  IC50: > 20 µM (inactive)
[5]
  IC50: > 20 µM (inactive)
[6]
  IC50: > 20 µM (inactive)
[7]
  IC50: > 20 µM (inactive)
[8]
  IC50: > 20 µM (inactive)
[9]
  IC50: > 20 µM (inactive)
[10]
  IC50: > 20 µM (inactive)

## Cc1ccc([C@H]2C[C@@H](O)[C@H](n3cc(-c4ccc(F)cc4)nn3)CN2C(=O)c2cccs2)cc1
Transthyretin
  EC50: > 167 µM (inactive)

## CC(C)N1C[C@@H](C)[C@H](CN(C)Cc2ccc(Oc3ccccc3)cc2)Oc2c(cccc2N(C)C(=O)c2ccncc2)C1=O
[11]
  AC50: 0.262 µM (active)
[12]
  AC50: 0.262 µM (active)
[13]
  IC50: 10 µM (inconclusive)

## c1ccc(-c2nc(N3CCOCC3)c3ccccc3n2)cc1
[14]
  IC50: > 80 µM (inactive)
[15]
  IC50: > 80 µM (inactive)

## CCc1cccc(C)c1N=C(S)NCC1CCN(c2ccc(OC)cc2)C1 (stereo not drawn)
[16]
  IC50: > 50 µM (not active)
Vero
  CC50: > 40 µM (active)

Reference: ChEMBL document CHEMBL1201862, “PubChem BioAssay data set” (2004)
